# In patent publication US6617440B1, “Myostatin regulatory region, nucleotide sequence determination and methods for its use” (Pfizer, Inc., priority 1999, dated 2003):
# Experiments:
# [1] = tested on: luciferase reporter gene in C2C12 cells; test: Transient transfection luciferase reporter assay of myostatin promoter fragments; format: cell-based, murine; conditions: normalized against Renilla luciferase activity
# Description: C2C12 are murine muscle cell lines (ATCC #CRL-1772). These cells were maintained in standard culture media at 37° C.
# The 1.8 kb and 2.5 kb myostatin promoter fragments and additional subclones of 320 bp and 901 bp proximal to the myostatin protein coding region were placed into the multicloning site of the pGL3 basic vector (Promega) 5′ to the coding sequence for luciferase. In this vector, the luciferase gene lacks a promoter, and, consequently, is under the control of any promoter cloned upstream of it. These plasmid vectors were used to transiently transfect C2C12 cells, using Fugene (Boehringer Mannheim) as a carrier to introduce the plasmid into the cells. The cell cultures were grown at 37° C., 5% CO2, in DMEM, and luciferase activity was measured using a commercial kit (Promega Luciferase Assay System, E150).
# The ability of the various fragments of the murine myostatin promoter region to control expression of the luciferase reporter gene in transient transfection assays is shown in FIG. 2. In each experiment, C2C12 cells were co-transfected with a second vector that employs a CMV promotor to express constitutively a Renilla luciferase gene (pRL-CMV, Promega). Values presented for the myostatin promoter constructs were all normalized against Renilla luciferase activity.
# C2C12 muscle cells = test: Expression of porcine GHRH from a myostatin promoter vector transiently transfected into C2C12 muscle cells; format: cell-based, murine; conditions: transient transfection, compared with a CMV promoter
# Description: Direct injection into muscle of DNA plasmids with muscle specific or constitutive promoters results in expression of the gene under control of that promoter. A vector utilizing the murine 2.5 kb myostatin promoter to drive expression of porcine growth hormone releasing hormone (GHRH) was constructed. […] In accordance with the present invention, the construct may be directly introduced into a host by direct injection of naked DNA.
substance,measurement,setting,value
"2.5 kb fragment: 2482 bp DNA fragment immediately 5' to the murine myostatin gene, the murine myostatin promoter (SEQ ID NO: 1)","transcriptional activity (luciferase reporter expression), in words",[1],strongest promoter of those tested
same,expression of GHRH detected in culture supernatants,C2C12 muscle cells,levels similar to those found using a CMV promoter
